Data: patent US12655116B2, “Substituted isophthalic acid diamides” (Bayer Aktiengesellschaft, priority 2020, dated 2026)

What was measured:
[1] = tested on: ABUTH; assay: Pre-emergence herbicidal action against ABUTH; format: in vivo, Abutilon theophrasti; conditions: for pest or weed control at 80 g/ha / pest or weed control at 20 g/ha: Abutilon theophrasti, 504 h; for pest or weed control at 20 g/ha: read-out: Pre-emergence action against ABUTH (herbicidal activity in percent)
In short: (§1)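 Seeds sown in sandy loam, soil-covered; compound sprayed on soil surface pre-emergence. Application: WP/EC, 600–800 l/ha, 0.2% wetting agent. Readout: visual % damage at 3 weeks.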

[2] = tested on: ALOMY; assay: Post-emergence herbicidal action against ALOMY; format: in vivo, Alopecurus myosuroides; conditions: visual assessment about 3 weeks after treatment vs untreated controls; for pest or weed control at 5 g/ha / pest or weed control at 20 g/ha: Alopecurus myosuroides, 504 h
In short: (§2)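 Sandy loam, greenhouse; treatment 2–3 weeks after sowing, one-leaf stage. Aqueous suspension or emulsion from WP/EC sprayed on foliage (600–800 l/ha, 0.2% wetting agent). Readout: visual % action, ~3 weeks.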

[3] = tested on: LOLRI; assay: Pre-emergence herbicidal action against LOLRI; format: in vivo, Lolium rigidum; conditions: 80 g/ha; for pest or weed control at 80 g/ha: Lolium rigidum, 504 h
Description: Seeds of monocotyledonous and dicotyledonous weed plants and crop plants are laid out in sandy loam soil in wood-fiber pots and covered with soil. The compounds of the invention, formulated in the form of wettable powders (WP) or as emulsion concentrates (EC), are then applied to the surface of the covering soil in the form of an aqueous suspension or emulsion at a water application rate equivalent to 600 to 800 l/ha, with addition of 0.2% wetting agent. After the treatment, the pots are placed in a greenhouse and kept under good growth conditions for the trial plants. The damage to the test plants is scored visually after a test period of 3 weeks by comparison with untreated controls (herbicidal activity in percent (%): 100% activity=the plants have died, 0% activity=like control plants). […] The tables below illustrate, in an illustrative manner, the post-emergence herbicidal action of the compounds of the invention, the herbicidal activity being stated in percent.

[4] = tested on: AMARE; assay: Pre-emergence herbicidal action against AMARE; format: in vivo, Amaranthus retroflexus; conditions: for pest or weed control at 20 g/ha / pest or weed control at 80 g/ha: Amaranthus retroflexus, 504 h
In short: as §1

[5] = tested on: AMARE; assay: Post-emergence herbicidal action against AMARE; format: in vivo, Amaranthus retroflexus; conditions: Amaranthus retroflexus, 504 h, 20 g/ha, visual assessment about 3 weeks after treatment, 100% = plants have died, 0% = like control plants
In short: as §2

[6] = tested on: PHBPU; assay: Pre-emergence herbicidal action against PHBPU; format: in vivo, Pharbitis purpurea; conditions: dosage 80 g/ha; for pest or weed control at 80 g/ha: Ipomoea purpurea, 504 h
In short: as §1

[7] = tested on: ECHCG; assay: Pre-emergence herbicidal action against ECHCG; format: in vivo, Echinochloa crus-galli; conditions: 80 g/ha; for pest or weed control at 80 g/ha: Echinochloa crus-galli, 504 h
In short: as §1

[8] = tested on: MATIN; assay: Pre-emergence herbicidal action against MATIN; format: in vivo, Matricaria inodora; conditions: for pest or weed control at 20 g/ha / pest or weed control at 80 g/ha: Tripleurospermum inodorum, 504 h
In short: as §1

[9] = tested on: MATIN; assay: Post-emergence herbicidal action against MATIN; format: in vivo, Matricaria inodora; conditions: Tripleurospermum inodorum, 504 h, dosage 20 g/ha
In short: as §2

[10] = tested on: SETVI; assay: Pre-emergence herbicidal action against SETVI; format: in vivo, Setaria viridis
In short: as §1

[11] = tested on: ALOMY; assay: Pre-emergence herbicidal action against ALOMY; format: in vivo, Alopecurus myosuroides
In short: as §1

[12] = tested on: DIGSA; assay: Pre-emergence herbicidal action against DIGSA; format: in vivo, Digitaria sanguinalis
In short: as §1

[13] = tested on: VIOTR; assay: Pre-emergence herbicidal action against VIOTR; format: in vivo, Viola tricolor
In short: as §1

[14] = tested on: AVEFA; assay: Pre-emergence herbicidal action against AVEFA; format: in vivo, Avena fatua; conditions: 80 g/ha, pre-emergence; for pest or weed control at 80 g/ha: Avena fatua, 504 h
In short: as §1

[15] = tested on: VERPE; assay: Pre-emergence herbicidal action against VERPE; format: in vivo, Veronica persica; conditions: Veronica persica, 504 h, dosage 80 g/ha
In short: as §1

[16] = tested on: SETVI; assay: Post-emergence herbicidal action against SETVI; format: in vivo, Setaria viridis
In short: as §2

[17] = tested on: ECHCG; assay: Post-emergence herbicidal action against ECHCG; format: in vivo, Echinochloa crus-galli
In short: as §2

[18] = tested on: ABUTH; assay: Post-emergence herbicidal action against ABUTH; format: in vivo, Abutilon theophrasti; conditions: Abutilon theophrasti, 504 h, visual assessment about 3 weeks after treatment vs untreated controls
In short: as §2

[19] = tested on: VIOTR; assay: Post-emergence herbicidal action against VIOTR; format: in vivo, Viola tricolor
In short: as §2

[20] = 80 g/ha, scored visually after 3 weeks vs untreated controls (100% = plants have died, 0% = like control plants)
[21] = dosage 20 g/ha, scored visually after 3 weeks vs untreated controls, 100% = plants have died, 0% = like control plants
[22] = 20 g/ha, scored visually after 3 weeks vs untreated controls, 100% = plants have died, 0% = like control plants
[23] = 80 g/ha, scored visually after 3 weeks vs untreated controls, 100% = plants have died, 0% = like control plants
[24] = Alopecurus myosuroides, 504 h, 80 g/ha, pre-emergence, scored visually after 3 weeks vs untreated controls (100% = plants have died, 0% = like control plants)
[25] = Viola tricolor, 504 h, dosage 80 g/ha
[26] = Echinochloa crus-galli, 504 h, dosage 20 g/ha

CCCNC(=O)c1c(C(F)(F)F)ccc(C(=O)Nc2nnnn2C)c1Cl [Example 1-136]
pest or weed control at 80 g/ha [1, 20]: 100% | pest or weed control at 20 g/ha [1, 21]: 90% | pest or weed control at 5 g/ha ([2]; dosage 5 g/ha): 80% | pest or weed control at 20 g/ha ([2]; dosage 20 g/ha): 90% | pest or weed control at 80 g/ha [3]: 90% | pest or weed control at 20 g/ha [4, 22]: 100% | pest or weed control at 80 g/ha [4, 23]: 100% | pest or weed control at 20 g/ha [5]: 90% | pest or weed control at 80 g/ha [6]: 80% | pest or weed control at 80 g/ha [7]: 90% | pest or weed control at 20 g/ha ([8]; dosage 20 g/ha): 90% | pest or weed control at 80 g/ha ([8]; dosage 80 g/ha): 100% | pest or weed control at 20 g/ha [9]: 80% | pest or weed control at 80 g/ha ([10]; Setaria viridis, 504 h, dosage 80 g/ha): 80% | pest or weed control at 80 g/ha [11, 24]: 90% | pest or weed control at 20 g/ha ([12]; Digitaria sanguinalis, 504 h, dosage 20 g/ha): 100% | pest or weed control at 80 g/ha ([12]; Digitaria sanguinalis, 504 h, dosage 80 g/ha): 100% | pest or weed control at 20 g/ha ([13]; Viola tricolor, 504 h, dosage 20 g/ha): 90% | pest or weed control at 80 g/ha [13, 25]: 100% | pest or weed control at 80 g/ha [14]: 80% | pest or weed control at 80 g/ha [15]: 90% | pest or weed control at 20 g/ha ([16]; Setaria viridis, 504 h, dosage 20 g/ha): 80% | pest or weed control at 5 g/ha ([17]; Echinochloa crus-galli, 504 h, dosage 5 g/ha): 80% | pest or weed control at 20 g/ha [17, 26]: 90%

CCCNC(=O)c1c(Br)ccc(C(=O)Nc2nnnn2CC)c1Cl [Example 2-184]
pest or weed control at 80 g/ha [1, 20]: 100% | pest or weed control at 20 g/ha [1, 21]: 100% | pest or weed control at 5 g/ha ([2]; dosage 5 g/ha): 80% | pest or weed control at 20 g/ha ([2]; dosage 20 g/ha): 100% | pest or weed control at 80 g/ha [3]: 80% | pest or weed control at 20 g/ha [4, 22]: 100% | pest or weed control at 80 g/ha [4, 23]: 100% | pest or weed control at 20 g/ha [5]: 100% | pest or weed control at 80 g/ha [6]: 90% | pest or weed control at 80 g/ha [7]: 100% | pest or weed control at 5 g/ha ([18]; dosage 5 g/ha): 90% | pest or weed control at 20 g/ha ([18]; dosage 20 g/ha): 90% | pest or weed control at 20 g/ha ([8]; dosage 20 g/ha): 90% | pest or weed control at 80 g/ha ([8]; dosage 80 g/ha): 100% | pest or weed control at 80 g/ha [11, 24]: 100% | pest or weed control at 20 g/ha ([11]; Alopecurus myosuroides, pre-emergence, 504 h, 20 g/ha, scored visually after 3 weeks, 100% = plants have died, 0% = like control plants): 90% | pest or weed control at 80 g/ha [13, 25]: 100% | pest or weed control at 80 g/ha [14]: 90% | pest or weed control at 80 g/ha [15]: 100% | pest or weed control at 20 g/ha [17, 26]: 100%

Cn1nnnc1NC(=O)c1ccc(Br)c(C(=O)NCC(F)F)c1Cl [Example 1-182]
Pre-emergence action against ABUTH (herbicidal activity) [1, 20]: 100% | Pre-emergence action against ABUTH (herbicidal activity in percent) [1, 21]: 100% | Post-emergence action against ALOMY in % ([2]; dosage 5 g/ha): 90% | Post-emergence action against ALOMY in % ([2]; dosage 20 g/ha): 100% | Pre-emergence action against LOLRI in % [3]: 80% | Pre-emergence action against AMARE in % [4, 22]: 100% | Pre-emergence action against AMARE in % [4, 20]: 100% | Pre-emergence action against PHBPU in % [6]: 90% | Pre-emergence action against ECHCG in % [7]: 100% | Post-emergence action against VIOTR in % ([19]; 5 g/ha): 100% | Post-emergence action against VIOTR in % ([19]; 20 g/ha): 100% | Pre-emergence action against MATIN in % ([8]; dosage 20 g/ha): 90% | Pre-emergence action against MATIN in % ([8]; dosage 80 g/ha): 100% | Pre-emergence action against SETVI in % ([10]; dosage 20 g/ha): 100% | Pre-emergence action against SETVI in % ([10]; dosage 80 g/ha): 100% | Pre-emergence action against ALOMY ([11]; 20 g/ha, scored visually after 3 weeks, 100% = plants have died, 0% = like control plants): 80% | Pre-emergence action against ALOMY (herbicidal activity) ([11]; 80 g/ha, pre-emergence, scored visually after 3 weeks vs untreated controls (100% = plants have died, 0% = like control plants)): 100% | Pre-emergence action against DIGSA in % ([12]; dosage 20 g/ha): 100% | Pre-emergence action against DIGSA in % ([12]; dosage 80 g/ha): 100% | Pre-emergence action against VIOTR in % ([13]; dosage 20 g/ha): 90% | Pre-emergence action against VIOTR in % ([13]; dosage 80 g/ha): 100% | Pre-emergence action against AVEFA in % [14]: 90% | Post-emergence action against SETVI in % ([16]; dosage 5 g/ha): 90% | Post-emergence action against SETVI in % ([16]; dosage 20 g/ha): 100% | Post-emergence action against ECHCG in % ([17]; dosage 20 g/ha): 80%
